According to US8329904B2, “Azacyclic derivatives” (Hoffmann-La Roche Inc., priority 2009, dated 2012):
pIC50: −log10 of the molar value.

molecular target: T1, human HSL (Homo sapiens, UniProt Q05469); experiment: Human Hormone-Sensitive Lipase (HSL) Enzyme Inhibition Assay; assay type: biochemical; conditions: colorimetric assay, 2,3-dimercapto-1-propanol tributyrate (DMPT) substrate, 37° C. for 20 minutes, absorbance at 405 nm; read-out: HSL hum IC50
T1 construct: overlapping PCR to generate a full length human HSL ORF with a 3′-His6 tag; His6 (C); made in house; host or cells: High 5 insect cells (baculovirus, pFast-BAC)
T1 sequence (Q05469 1-1076): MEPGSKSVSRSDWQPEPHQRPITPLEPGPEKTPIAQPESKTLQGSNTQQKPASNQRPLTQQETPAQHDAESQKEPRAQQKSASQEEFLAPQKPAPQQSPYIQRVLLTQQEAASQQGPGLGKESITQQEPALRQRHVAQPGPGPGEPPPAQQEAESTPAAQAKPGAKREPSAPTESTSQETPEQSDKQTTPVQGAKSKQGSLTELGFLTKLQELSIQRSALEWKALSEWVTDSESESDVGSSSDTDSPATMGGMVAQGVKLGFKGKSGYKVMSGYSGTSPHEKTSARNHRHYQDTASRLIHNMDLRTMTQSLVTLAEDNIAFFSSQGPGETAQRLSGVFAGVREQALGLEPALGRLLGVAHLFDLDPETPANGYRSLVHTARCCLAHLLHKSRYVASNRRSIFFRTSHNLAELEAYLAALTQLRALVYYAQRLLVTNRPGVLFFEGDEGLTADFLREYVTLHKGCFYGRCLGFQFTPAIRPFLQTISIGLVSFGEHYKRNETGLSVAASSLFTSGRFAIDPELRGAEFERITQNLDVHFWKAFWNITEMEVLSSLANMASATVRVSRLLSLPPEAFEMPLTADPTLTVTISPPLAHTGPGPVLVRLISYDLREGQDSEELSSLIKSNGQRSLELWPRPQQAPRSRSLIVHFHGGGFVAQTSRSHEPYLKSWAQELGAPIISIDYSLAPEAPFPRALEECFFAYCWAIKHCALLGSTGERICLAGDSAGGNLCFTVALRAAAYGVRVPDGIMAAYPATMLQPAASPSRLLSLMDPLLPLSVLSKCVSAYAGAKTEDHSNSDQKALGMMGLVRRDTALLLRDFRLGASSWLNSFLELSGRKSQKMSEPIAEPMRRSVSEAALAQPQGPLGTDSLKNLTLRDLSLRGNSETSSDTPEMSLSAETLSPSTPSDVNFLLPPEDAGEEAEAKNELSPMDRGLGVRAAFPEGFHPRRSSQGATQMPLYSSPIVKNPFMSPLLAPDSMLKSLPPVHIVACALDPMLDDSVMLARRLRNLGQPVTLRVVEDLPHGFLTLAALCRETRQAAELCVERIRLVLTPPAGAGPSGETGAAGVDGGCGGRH
How it was run: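 Colorimetric thioester hydrolysis: compounds in DMSO series mixed with DMPT (1.5 mM) in MOPS pH 7.2 with BSA, then baculovirus-expressed His6-tagged full-length human HSL added, 37° C, 20 min. DTNB plus detergents added, 15 min room temperature, absorbance at 405 nm.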

pIC50 | SMILES
6.26 | CC(O)(c1ccc(N2CCC3(CCN(S(=O)(=O)C4CC4)CC3)C2=O)cc1)C(F)(F)F (centres unmarked) [Example 171, 8-(Cyclopropylsulfonyl)-2-(4-(1,1,1-trifluoro-2-hydroxypropan-2-yl)phenyl)-2,8-diazaspiro[4.5]decan-1-one]
7.05 | CCN(CCOC)S(=O)(=O)N1CCC2(CCN(c3ccc(OC(F)(F)F)cc3)C2=O)CC1 [Example 294, 1-Oxo-2-(4-trifluoromethoxy-phenyl)-2,8-diaza-spiro[4.5]decane-8-sulfonic acid ethyl-(2-methoxy-ethyl)-amide]
7.30 | O=C(COC1CCCC1)N1CCC2(CC1)CCN(c1ccc(OC(F)(F)F)cc1)C2=O [Example 226, 8-(2-Cyclopentyloxy-acetyl)-2-(4-trifluoromethoxy-phenyl)-2,8-diaza-spiro[4.5]decan-1-one]
6.80 | CCN(Cc1ccccc1F)C(=O)N1CCC2(CC1)CCN(c1ccc(OC(F)(F)F)cc1)C2=O [Example 306, 1-Oxo-2-(4-trifluoromethoxy-phenyl)-2,8-diaza-spiro[4.5]decane-8-carboxylic acid ethyl-(2-fluoro-benzyl)-amide]
6.80 | CN(CCc1ccccn1)S(=O)(=O)N1CCC2(CCN(c3ccc(OC(F)(F)F)cc3)C2=O)CC1 [Example 298, 1-Oxo-2-(4-trifluoromethoxy-phenyl)-2,8-diaza-spiro[4.5]decane-8-sulfonic acid methyl-(2-pyridin-2-yl-ethyl)-amide]
7.10 | CC(C)CN(C)S(=O)(=O)N1CCC2(CCN(c3ccc(OC(F)(F)F)cc3)C2=O)CC1 [Example 293, 1-Oxo-2-(4-trifluoromethoxy-phenyl)-2,8-diaza-spiro[4.5]decane-8-sulfonic acid isobutyl-methyl-amide]
6.55 | O=C(N1CCC2(CC1)CCN(c1ccc(OC(F)(F)F)cc1)C2=O)C1(O)CC1 [Example 219, 8-(1-Hydroxy-cyclopropanecarbonyl)-2-(4-trifluoromethoxy-phenyl)-2,8-diaza-spiro[4.5]decan-1-one]
7.40 | CCOCc1ccc(N2CCC3(CCN(S(=O)(=O)c4ccccc4Cl)CC3)C2=O)cc1 [Example 149, 8-(2-Chloro-benzenesulfonyl)-2-(4-ethoxymethyl-phenyl)-2,8-diaza-spiro[4.5]decan-1-one]
7.40 | C=Cc1ccc(N2CCC3(CCN(S(=O)(=O)c4ccccc4Cl)CC3)C2=O)cc1 [Example 91, 8-(2-Chloro-benzenesulfonyl)-2-(4-vinyl-phenyl)-2,8-diaza-spiro[4.5]decan-1-one]
7.30 | CC(=O)c1ccc(N2CCC3(CCN(S(=O)(=O)c4ccccc4Cl)CC3)C2=O)cc1 [Example 151, 2-(4-Acetyl-phenyl)-8-(2-chloro-benzenesulfonyl)-2,8-diaza-spiro[4.5]decan-1-one]
7.40 | Cc1ccc(S(=O)(=O)N2CCC3(CCN(c4ccc(OC(F)(F)F)cc4)C3=O)CC2)s1 [Example 42, 8-(5-Methyl-thiophene-2-sulfonyl)-2-(4-trifluoromethoxy-phenyl)-2,8-diaza-spiro[4.5]decan-1-one]
7.52 | CC(O)(c1ccc(N2CCC3(CCN(S(=O)(=O)c4ccccc4C(F)(F)F)CC3)C2=O)cc1)C(F)(F)F (centres unmarked) [Example 169, 2-(4-(1,1,1-trifluoro-2-hydroxypropan-2-yl)phenyl)-8-(2-(trifluoromethyl)phenylsulfonyl)-2,8-diazaspiro[4.5]decan-1-one]
7.22 | COc1ccc(CCN2CCC3(CCN(S(=O)(=O)c4ccccc4Cl)CC3)C2=O)cc1 [Example 240, 8-(2-Chloro-benzenesulfonyl)-2-[2-(4-methoxy-phenyl)-ethyl]-2,8-diaza-spiro[4.5]decan-1-one]
6.92 | O=C1N(c2ccc(/C=C/C3CC3)cc2)CCC12CCN(S(=O)(=O)c1ccccc1OC(F)(F)F)CC2 [Example 145, 2-[4-((E)-2-Cyclopropyl-vinyl)-phenyl]-8-(2-trifluoromethoxy-benzenesulfonyl)-2,8-diaza-spiro[4.5]decan-1-one]
7.05 | O=C1N(CCCc2ccccc2)CCC12CCN(S(=O)(=O)c1ccccc1Cl)CC2 [Example 241, 8-(2-Chloro-benzenesulfonyl)-2-(3-phenyl-propyl)-2,8-diaza-spiro[4.5]decan-1-one]
6.21 | O=C(N1CCOCC1)N1CCC2(CC1)CCN(c1ccc(OC(F)(F)F)cc1)C2=O [Example 257, 8-(Morpholine-4-carbonyl)-2-(4-trifluoromethoxy-phenyl)-2,8-diaza-spiro[4,5]decan-1-one]
7.22 | CCn1cc2cc(N3CCC4(CCN(S(=O)(=O)c5ccccc5Cl)CC4)C3=O)ccc2n1 [Example 124, 8-(2-Chloro-benzenesulfonyl)-2-(2-ethyl-2H-indazol-5-yl)-2,8-diaza-spiro[4.5]decan-1-one]
6.85 | O=C1N(c2ccc(C(O)CF)cc2)CCC12CCN(S(=O)(=O)c1ccccc1C(F)(F)F)CC2 (centres unmarked) [Example 173, 2-(4-(2-fluoro-1-hydroxyethyl)phenyl)-8-(2-(trifluoromethyl)phenylsulfonyl)-2,8-diazaspiro[4.5]decan-1-one]
6.89 | CC(C)CS(=O)(=O)N1CCC2(CCN(c3ccc(C(C)(O)C(F)(F)F)cc3)C2=O)CC1 (centres unmarked) [Example 168, 8-(isobutylsulfonyl)-2-(4-(1,1,1-trifluoro-2-hydroxypropan-2-yl)phenyl)-2,8-diazaspiro[4.5]decan-1-one]
7.40 | CC(C)(Oc1ccc(N2CCC3(CCN(S(=O)(=O)c4ccccc4)CC3)C2=O)cc1)C(F)(F)F [Example 5, 8-Benzenesulfonyl-2-[4-(2,2,2-trifluoro-1,1-dimethyl-ethoxy)-phenyl]-2,8-diaza-spiro[4.5]decan-1-one]
7.40 | COCCCOc1ccc(N2CCC3(CCN(S(=O)(=O)c4ccccc4OC(F)(F)F)CC3)C2=O)cc1 [Example 109, 2-[4-(3-Methoxy-propoxy)-phenyl]-8-(2-trifluoromethoxy-benzenesulfonyl)-2,8-diaza-spiro[4.5]decan-1-one]
7.22 | CN(C(=O)N1CCC2(CC1)CCN(c1ccc(OC(F)(F)F)cc1)C2=O)c1ccccc1 [Example 275, 1-Oxo-2-(4-trifluoromethoxy-phenyl)-2,8-diaza-spiro[4.5]decane-8-carboxylic acid methyl-phenyl-amide]
6.89 | COC1(CS(=O)(=O)N2CCC3(CCN(c4ccc(OC(F)(F)F)cc4)C3=O)CC2)CCCC1 [Example 211, 8-(1-Methoxy-cyclopentylmethanesulfonyl)-2-(4-trifluoromethoxy-phenyl)-2,8-diaza-spiro[4.5]decan-1-one]
6.72 | O=C1N(c2ccc(OC(F)(F)F)cc2)CCC12CCN(S(=O)(=O)c1ccc(F)cc1C(F)(F)F)CC2 [Example 76, 8-(4-Fluoro-2-trifluoromethyl-benzenesulfonyl)-2-(4-trifluoromethoxy-phenyl)-2,8-diaza-spiro[4.5]decan-1-one]
6.77 | CCc1ccc(N2CCC3(CCN(S(=O)(=O)c4ccccc4N4CCCC4=O)CC3)C2=O)cc1 [Example 143, 2-(4-Ethyl-phenyl)-8-[2-(2-oxo-pyrrolidin-1-yl)-benzenesulfonyl]-2,8-diaza-spiro[4.5]decan-1-one]
7.40 | CCc1ccc(CCN2CCC3(CCN(S(=O)(=O)c4ccccc4Cl)CC3)C2=O)cc1 [Example 237, 8-(2-Chloro-benzenesulfonyl)-2-[2-(4-ethyl-phenyl)-ethyl]-2,8-diaza-spiro[4.5]decan-1-one]
6.72 | O=C(NCc1ccc(F)cc1)N1CCC2(CC1)CCN(c1ccc(OC(F)(F)F)cc1)C2=O [Example 261, 1-Oxo-2-(4-trifluoromethoxy-phenyl)-2,8-diaza-spiro[4.5]decane-8-carboxylic acid 4-fluoro-benzylamide]
6.22 | O=C1N(c2ccc(OCC3CCCC3)cc2)CCC12CCN(S(=O)(=O)c1ccccc1Cl)CC2 [Example 133, 8-(2-Chloro-benzenesulfonyl)-2-(4-cyclopentylmethoxy-phenyl)-2,8-diaza-spiro[4.5]decan-1-one]

SMILES | pIC50
CCCCOc1ccc(N2CCC3(CCN(S(=O)(=O)c4ccccc4OC(F)(F)F)CC3)C2=O)cc1 [Example 88, 2-(4-Butoxy-phenyl)-8-(2-trifluoromethoxy-benzenesulfonyl)-2,8-diaza-spiro[4.5]decan-1-one] | 7.30
